Residues, ends and D or L forms follow the SMILES beside them.
How the values were obtained:
[1] = Body weight of rats in 1.5-hour ischemia/reperfusion model; type: in vivo, Sprague-Dawley (SD) rats; conditions: 3.6 mg/kg i.p. once a day
Procedure: (§1) Sprague-Dawley (SD) rats, male, weighing 280-320 g, clean, feeding, conditions: room temperature of 20-25° C., humidity of 30-60%, well ventilated, ad libitum diet; the animals were acclimatized in the feeding environment for three days prior to the experiment.
(§2) The rats were anesthetized with 4% chloral hydrate (350 mg/kg, ip.) and then were fixed in a supine position. A midline ventral neck incision was made, the right common carotid artery was separated and snared with two sutures for further use. Then, the internal carotid artery and external carotid artery were separated, and the external carotid artery was ligatured. The separated common carotid artery was ligatured at its proximal end with a thread, and the blood flow of the same was blocked at its distal end with a bulldog clamp. A small opening was cut therebetween and a nylon suture (4-0) which is heated at one end into a bead-like shape (having a diameter of <0.3 mm) was inserted into the small opening. The bulldog clamp was removed, and the nylon suture was gently advanced to the origin of the anterior cerebral artery (18-20 mm), thereby causing arterial ischemia in brain by blocking the blood supply of the cerebral artery. The skin was sutured and was sterilized with tincture of iodine. […]

[2] = system: right cerebral artery ischemia/reperfusion model in rats; assay: Neurologic deficit score in rat 1.5-hour ischemia/reperfusion model; type: in vivo, Sprague-Dawley (SD) rats; conditions: 3.6 mg/kg i.p. once a day, vs model group without compound
Procedure: as §1
as §2, with “opening.” for “opening. The bulldog clamp was removed, and the nylon suture was gently advanced to the origin of the anterior cerebral artery (18-20 mm), thereby causing arterial ischemia in brain by blocking the blood supply of the cerebral artery. The skin was sutured and was sterilized with tincture of iodine.”
Neurologic deficit scores were assessed for the above experimental animals according to the following procedure before the beginning of experiment and 24 hours, 1 day, 3 days, 7 days, 14 days, 28 days, 56 days, and 112 days after the beginning of experiment; Score rules: see Zea Longer score and NSS score, full score of 10; […]

With `CC(C)CC(NC(=O)C(CCC(N)=O)NC(=O)C(NC(=O)C(CO)NC(=O)C(Cc1c[nH]cn1)NC(=O)C(N)C(C)C)C(C)C)C(=O)NC(Cc1ccc(O)cc1)C(=O)O` (stereo not shown) [compound of formula (III)] (H-VHSVQLY-OH; configuration not given here) the weight ([1]; I1.5R+1 week+dosing for 4 weeks, vs model group without compound) was “gradually increased weight”, the weight ([1]; I1.5R+2 weeks+dosing for 4 weeks, vs model group, weight data said not demonstrative (groups differed before dosing)) was “gradually increased weight” and the “neuroethology score (neurologic deficit score)” value ([2]; I1.5R+1 week+dosing for 4 weeks, statistically significant in 2nd, 3rd, 4th, 5th and 7th week after operation) was “gradually declined neuroethology score”. The neurological scores ([2]; I1.5R+2 weeks+dosing for 4 weeks, statistically significant at fifth week after operation) was “declined from the beginning of the administration”.

Source: patent US10647745B2, “Compound for treating sequelae of ischemic cerebral stroke” (priority 2015, dated 2020)
